Measured values as given in patent US20240188561A1, “ADDITIVES FOR ENHANCING THE PESTICIDAL EFFECTIVENESS OF PESTICIDAL MICROORGANISMS” (priority 2021, published 2024).

Columns and labels:
[1] = system: Bacillus amyloliquefaciens; test: Additive compatibility with microbial growth (growth slope by OD 620 nm); assay type: cell-based; conditions: additive 0.01-5 %, exposed 4 hours at 16° C., then tryptic soy broth 30° C., slope compared to 0% sample
Bacillus firmus = test: as above; assay type: cell-based; conditions: additive 0.01-5 %, exposed 4 hours at 16° C., then tryptic soy broth 30° C., slope compared to 0% sample
Pseudomonas fluorescens = test: as above; assay type: cell-based; conditions: additive 0.01-5 %, exposed 4 hours at 16° C., then tryptic soy broth 30° C., slope compared to 0% sample
Bacillus subtilis = test: as above; assay type: cell-based; conditions: additive 0.01-5 %, exposed 4 hours at 16° C., then tryptic soy broth 30° C., slope compared to 0% sample
[2] = system: Downy Mildew (Plasmopara viticola); test: Spray trial on first year grape vines, Downy Mildew infection; assay type: in vivo; conditions: in words
Method: Eight solutions were prepared as described in Table 2a. These solutions were sprayed on first year grape vines showing no signs of Downy Mildew (Plasmopara viticola). […] Six of the solutions included Additive Blend 1 (a 50:50 blend of POE 10 soybean oil and PEG 400 dioleate).
Four applications were made over a month to the same grape vines. At the end of the month, the infection rates of Downy Mildew were evaluated by comparing to untreated grape vines.
Eight solutions were prepared as described in Table 6a. These solutions were sprayed on first year grape vines showing no signs of Downy Mildew (Plasmopara viticola). […] Six of the solutions included PEG 400 dioleate.

PEG 400 dioleate [v-3]
Influence of additive on microbial growth slope (compatibility), Bacillus amyloliquefaciens [1]: E (E represents an Enhancing result) | Influence of additive on microbial growth slope (compatibility), Bacillus firmus (Bacillus firmus): E (E represents an Enhancing result) | Influence of additive on microbial growth slope (compatibility), Pseudomonas fluorescens (Pseudomonas fluorescens): E (E represents an Enhancing result) | Influence of additive on microbial growth slope (compatibility), Bacillus subtilis (Bacillus subtilis): E (E represents an Enhancing result) | Control of Downy Mildew (lower %-Infection) when additive was added to Serifel Biofungicide spray solutions [2]: improved control
